Reference: publication PMC10041525, “New Dual Inhibitors of Bacterial Topoisomerases with Broad-Spectrum Antibacterial Activity and In Vivo Efficacy against Vancomycin-Intermediate Staphylococcus aureus” (Journal of Medicinal Chemistry, 2023)
Converted amounts (≈) assume the structure as drawn. Read-outs that look alike come from different tables or passages of the source.

What was measured:
Assay type in all cases: cell-based
[1] = tested on: 100 A. baumannii strains (50 MDR, 50 non-MDR); assay: MIC broth microdilution at IHMA Europe, panel of 100 strains; settings: for MIC / MIC50 / MIC90: Acinetobacter baumannii; for MIC50: read-out: MIC 50; for MIC90: read-out: MIC 90
[2] = tested on: E. coli ATCC 25922; assay: IHMA QC MIC; settings: Escherichia coli
[3] = tested on: H. influenzae ATCC 49766; assay: IHMA QC MIC
From the text: (§1) Supplement jm2c01905_si_004.xlsx, sheet "QC" | column: MIC [µg/mL]

[4] = tested on: S. pneumoniae ATCC 49619; assay: IHMA QC MIC
From the text: as §1

[5] = tested on: E. faecalis ATCC 29212; assay: IHMA QC MIC
From the text: as §1

[6] = tested on: H. influenzae ATCC 49247; assay: IHMA QC MIC; settings: Haemophilus influenzae, read-out: MIC
From the text: as §1

Question: Which MIC ([1]; A. baumannii IHMA 2177232, Lithuania 2020, MDR, read-out: MIC) does the source give for `C[C@@H](O)[C@H]1C(=O)N2C(C(=O)O)=C(SCCNC=N)C[C@H]12` [Imipenem, imipenem] here?
Answer: > 16 µg/mL

Question: What about the MIC ([1]; A. baumannii IHMA 2177489, Lithuania 2020, MDR, read-out: MIC) of the same compound?
Answer: > 16 µg/mL

Question: And the MIC ([1]; A. baumannii IHMA 2178574, Ukraine 2020, Non-MDR, read-out: MIC)?
Answer: ≤ 0.25 µg/mL

Question: And the MIC ([1]; A. baumannii IHMA 2180134, Malaysia 2020, Non-MDR, read-out: MIC)?
Answer: ≤ 0.25 µg/mL

Question: And the MIC ([1]; A. baumannii IHMA 2180142, Malaysia 2020, MDR, read-out: MIC)?
Answer: 16 µg/mL (≈ 53.4 µM)

Question: And the MIC ([1]; A. baumannii IHMA 2181370, Morocco 2020, MDR, read-out: MIC)?
Answer: > 16 µg/mL

Question: What about the MIC ([1]; A. baumannii IHMA 2183729, Argentina 2020, MDR, read-out: MIC) of the same compound?
Answer: 16 µg/mL (≈ 53.4 µM)

Question: And the MIC ([1]; A. baumannii IHMA 2183849, Argentina 2020, Non-MDR, read-out: MIC)?
Answer: ≤ 0.25 µg/mL

Question: What about the MIC ([1]; A. baumannii IHMA 2184382, Japan 2020, Non-MDR, read-out: MIC) of the same compound?
Answer: ≤ 0.25 µg/mL

Question: And the MIC ([1]; A. baumannii IHMA 2193375, Venezuela 2020, MDR, read-out: MIC)?
Answer: > 16 µg/mL

Question: And the MIC ([1]; A. baumannii IHMA 2193485, Venezuela 2020, Non-MDR, read-out: MIC)?
Answer: ≤ 0.25 µg/mL

Question: What about the MIC ([1]; A. baumannii IHMA 2193607, Venezuela 2020, MDR, read-out: MIC) of the same compound?
Answer: > 16 µg/mL

Question: And the MIC ([1]; A. baumannii IHMA 2195460, Italy 2020, MDR, read-out: MIC)?
Answer: > 16 µg/mL

Question: And the MIC ([1]; A. baumannii IHMA 2196914, South Africa 2020, MDR, read-out: MIC)?
Answer: > 16 µg/mL

Question: And the MIC ([1]; A. baumannii IHMA 2196959, South Africa 2020, MDR, read-out: MIC)?
Answer: > 16 µg/mL

Question: What about the MIC ([1]; A. baumannii IHMA 2203763, Spain 2020, MDR, read-out: MIC) of the same compound?
Answer: > 16 µg/mL

Question: What about the MIC ([1]; A. baumannii IHMA 2205144, Korea, South 2020, MDR, read-out: MIC) of the same compound?
Answer: > 16 µg/mL

Question: What about the MIC ([1]; A. baumannii IHMA 2206459, Taiwan 2020, MDR, read-out: MIC) of the same compound?
Answer: > 16 µg/mL

Question: What about the MIC ([1]; A. baumannii IHMA 2206507, Taiwan 2020, Non-MDR, read-out: MIC) of the same compound?
Answer: ≤ 0.25 µg/mL

Question: And the MIC ([1]; A. baumannii IHMA 2212575, Hungary 2020, Non-MDR, read-out: MIC)?
Answer: ≤ 0.25 µg/mL

Question: And the MIC ([1]; A. baumannii IHMA 2215307, Hong Kong 2020, Non-MDR, read-out: MIC)?
Answer: ≤ 0.25 µg/mL

Question: And the MIC ([1]; A. baumannii IHMA 2216586, Taiwan 2020, MDR, read-out: MIC)?
Answer: > 16 µg/mL

Question: And the MIC ([1]; A. baumannii IHMA 2223200, Colombia 2020, Non-MDR, read-out: MIC)?
Answer: ≤ 0.25 µg/mL

Question: What about the MIC ([1]; A. baumannii IHMA 2224017, Panama 2020, MDR, read-out: MIC) of the same compound?
Answer: > 16 µg/mL

Question: What about the MIC ([1]; A. baumannii IHMA 2224303, Panama 2020, Non-MDR, read-out: MIC) of the same compound?
Answer: ≤ 0.25 µg/mL

Question: What about the MIC ([1]; A. baumannii IHMA 2231797, Greece 2020, MDR, read-out: MIC) of the same compound?
Answer: > 16 µg/mL

Question: And the MIC ([1]; A. baumannii IHMA 2233099, Guatemala 2020, MDR, read-out: MIC)?
Answer: > 16 µg/mL

Question: And the MIC ([1]; A. baumannii IHMA 2233430, Kazakhstan 2020, MDR, read-out: MIC)?
Answer: > 16 µg/mL

Question: And the MIC ([1]; A. baumannii IHMA 2233548, Kazakhstan 2020, Non-MDR, read-out: MIC)?
Answer: ≤ 0.25 µg/mL

Question: What about the MIC ([1]; A. baumannii IHMA 2238964, Thailand 2020, MDR, read-out: MIC) of the same compound?
Answer: > 16 µg/mL

Question: And the MIC ([1]; A. baumannii IHMA 2239052, Thailand 2020, Non-MDR, read-out: MIC)?
Answer: ≤ 0.25 µg/mL

Question: And the MIC ([1]; A. baumannii IHMA 2261047, Belgium 2020, MDR, read-out: MIC)?
Answer: > 16 µg/mL

Question: And the MIC ([1]; A. baumannii IHMA 2261633, Canada 2020, Non-MDR, read-out: MIC)?
Answer: ≤ 0.25 µg/mL

Question: What about the MIC ([1]; A. baumannii IHMA 2274234, South Africa 2020, MDR, read-out: MIC) of the same compound?
Answer: > 16 µg/mL

Question: What about the MIC ([1]; A. baumannii IHMA 2274364, South Africa 2020, MDR, read-out: MIC) of the same compound?
Answer: > 16 µg/mL

Question: What about the MIC ([1]; A. baumannii IHMA 2275237, Chile 2020, Non-MDR, read-out: MIC) of the same compound?
Answer: ≤ 0.25 µg/mL

Question: What about the MIC ([1]; A. baumannii IHMA 2275751, Jordan 2020, MDR, read-out: MIC) of the same compound?
Answer: > 16 µg/mL

Question: What about the MIC ([1]; A. baumannii IHMA 2316205, United States 2020, MDR, read-out: MIC) of the same compound?
Answer: > 16 µg/mL

Question: What about the MIC ([1]; MDR n = 50, read-out: MAX (maximum MIC; all strains inhibited)) of the same compound?
Answer: > 16 µg/mL

Question: And the MIC50 ([1]; MDR n = 50)?
Answer: > 16 µg/mL

Question: What about the MIC90 ([1]; MDR n = 50) of the same compound?
Answer: > 16 µg/mL

Question: And the MIC ([1]; MDR n = 50, read-out: MIN (minimum MIC))?
Answer: 16 µg/mL (≈ 53.4 µM)

Question: What about the MIC ([1]; all isolates n = 100, read-out: MAX (maximum MIC; all strains inhibited)) of the same compound?
Answer: > 16 µg/mL

Question: And the MIC50 ([1]; all isolates n = 100)?
Answer: 0.5 µg/mL (≈ 1.67 µM)

Question: And the MIC90 ([1]; all isolates n = 100)?
Answer: > 16 µg/mL

Question: What about the MIC ([1]; all isolates n = 100, read-out: MIN (minimum MIC)) of the same compound?
Answer: ≤ 0.25 µg/mL

Question: What about the MIC ([1]; non-MDR n = 50, read-out: MAX (maximum MIC)) of the same compound?
Answer: 0.5 µg/mL (≈ 1.67 µM)

Question: And the MIC50 ([1]; non-MDR n = 50)?
Answer: ≤ 0.25 µg/mL

Question: And the MIC90 ([1]; non-MDR n = 50)?
Answer: ≤ 0.25 µg/mL

Question: And the MIC ([1]; non-MDR n = 50, read-out: MIN (minimum MIC))?
Answer: ≤ 0.25 µg/mL

Question: And the “Percentage I” value ([1]; MDR n = 50)?
Answer: 0%

Question: What about the “Percentage R” value ([1]; MDR n = 50) of the same compound?
Answer: 100%

Question: And the “Percentage S” value ([1]; MDR n = 50)?
Answer: 0%

Question: What about the “Percentage I” value ([1]; all n = 100, CLSI breakpoints) of the same compound?
Answer: 0%

Question: And the “Percentage R” value ([1]; all n = 100, CLSI breakpoints)?
Answer: 50%

Question: And the “Percentage S” value ([1]; all n = 100, CLSI breakpoints)?
Answer: 50%

Question: And the “Percentage I” value ([1]; non-MDR n = 50)?
Answer: 0%

Question: And the “Percentage R” value ([1]; non-MDR n = 50)?
Answer: 0%

Question: What about the “Percentage S” value ([1]; non-MDR n = 50) of the same compound?
Answer: 100%

Question: And the MIC ([2]; ATCC25922, QC strain E. coli ATCC 25922, test date 2021-11-26, read-out: MIC)?
Answer: 0.12 µg/mL (≈ 0.401 µM)

Question: And the MIC ([2]; ATCC25922, read-out: MIC (QC, repeated tests))?
Answer: ≤ 0.25 µg/mL

Question: What about the MIC ([3]; Haemophilus influenzae, ATCC49766, QC strain H. influenzae ATCC 49766, test date 2021-11-11, read-out: MIC) of the same compound?
Answer: 0.5 µg/mL (≈ 1.67 µM)

Question: And the MIC ([3]; QC strain H. influenzae ATCC 49766, test date 2021-11-26)?
Answer: 0.5 µg/mL (≈ 1.67 µM)

Question: And the MIC ([4]; QC strain S. pneumoniae ATCC 49619, test date 2021-11-26)?
Answer: 0.03 µg/mL (≈ 0.1 µM)

Question: What about the MIC ([4]; Streptococcus pneumoniae, ATCC49619, QC strain S. pneumoniae ATCC 49619, test date 2021-11-11, read-out: MIC) of the same compound?
Answer: 0.03 µg/mL (≈ 0.1 µM)

Question: What about the MIC ([5]; Enterococcus faecalis, ATCC29212, QC strain E. faecalis ATCC 29212, test date 2021-11-11, read-out: MIC) of the same compound?
Answer: 1 µg/mL (≈ 3.34 µM)

Question: What about the MIC ([5]; QC strain E. faecalis ATCC 29212, test date 2021-11-26) of the same compound?
Answer: 1 µg/mL (≈ 3.34 µM)

Question: What about the MIC ([6]; ATCC49247, QC strain H. influenzae ATCC 49247, test date 2021-11-11) of the same compound?
Answer: 0.25 µg/mL (≈ 0.835 µM)

Question: And the MIC ([6]; ATCC49247, QC strain H. influenzae ATCC 49247, test date 2021-11-26)?
Answer: 0.12 µg/mL (≈ 0.401 µM)
